Data published in patent US11492335B2, “Aryl or heteroaryl triazolone derivatives or salts thereof, or pharmaceutical compositions comprising the same” (YUHAN CORPORATION, priority 2018, dated 2022).
Structures can show the parent of a compound that is named as a salt. Where two headings read alike, the source gives them in different places.

Experiments:
Format in all cases: biochemical
recombinant human VAP-1 = biological target: T1, recombinant human VAP-1 (Homo sapiens, UniProt Q16853); experiment: Activity on recombinant human VAP-1, Amplex Red HRP-coupled hydrogen peroxide assay, benzylamine substrate; conditions: recombinant human VAP-1, benzylamine substrate, read-out: Inhibitory Activity (IC50, nM) human VAP-1
T1 construct: purchased R&D systems
T1 sequence (Q16853 1-763): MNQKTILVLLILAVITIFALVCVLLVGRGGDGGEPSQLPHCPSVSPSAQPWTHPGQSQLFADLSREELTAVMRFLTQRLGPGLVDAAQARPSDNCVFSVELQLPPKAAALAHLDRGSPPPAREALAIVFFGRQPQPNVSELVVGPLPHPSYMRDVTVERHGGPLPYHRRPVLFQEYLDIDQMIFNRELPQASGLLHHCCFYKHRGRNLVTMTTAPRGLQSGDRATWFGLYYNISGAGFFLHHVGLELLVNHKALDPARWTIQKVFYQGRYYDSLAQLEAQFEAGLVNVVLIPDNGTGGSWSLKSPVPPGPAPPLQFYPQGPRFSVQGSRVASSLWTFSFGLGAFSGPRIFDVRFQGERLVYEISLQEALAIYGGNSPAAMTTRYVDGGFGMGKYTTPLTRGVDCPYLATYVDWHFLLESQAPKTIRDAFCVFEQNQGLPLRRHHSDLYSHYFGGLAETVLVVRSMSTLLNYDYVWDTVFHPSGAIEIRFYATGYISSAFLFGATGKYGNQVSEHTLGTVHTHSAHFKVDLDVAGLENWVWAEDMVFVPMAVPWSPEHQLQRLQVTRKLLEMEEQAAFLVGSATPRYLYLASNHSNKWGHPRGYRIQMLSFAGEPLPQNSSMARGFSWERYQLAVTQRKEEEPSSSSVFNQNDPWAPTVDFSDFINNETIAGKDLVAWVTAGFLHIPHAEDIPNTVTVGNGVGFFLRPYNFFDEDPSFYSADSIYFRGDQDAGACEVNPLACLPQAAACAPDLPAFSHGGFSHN
Outline: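 Fluorescence of resorufin formed from H2O2 (ex 544 nm, em 590 nm) was tracked for 1-2 h after adding 1 mM benzylamine, 200 uM Amplex Red and 1 U/mL HRP to enzyme pretreated with compound for 30 min at 37 °C. IC50 values derive from four-variable logistic fits.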

[1] = biological target: T2, recombinant human DAO (diamine oxidase) (Homo sapiens, UniProt P19801); experiment: Activity on recombinant human DAO, Amplex Red method, 1 mM putrescine substrate; conditions: recombinant human DAO; for IC50: read-out: Inhibitory Activity (IC50, nM) DAO
T2 construct: purchased R&D systems
T2 sequence (P19801 20-751): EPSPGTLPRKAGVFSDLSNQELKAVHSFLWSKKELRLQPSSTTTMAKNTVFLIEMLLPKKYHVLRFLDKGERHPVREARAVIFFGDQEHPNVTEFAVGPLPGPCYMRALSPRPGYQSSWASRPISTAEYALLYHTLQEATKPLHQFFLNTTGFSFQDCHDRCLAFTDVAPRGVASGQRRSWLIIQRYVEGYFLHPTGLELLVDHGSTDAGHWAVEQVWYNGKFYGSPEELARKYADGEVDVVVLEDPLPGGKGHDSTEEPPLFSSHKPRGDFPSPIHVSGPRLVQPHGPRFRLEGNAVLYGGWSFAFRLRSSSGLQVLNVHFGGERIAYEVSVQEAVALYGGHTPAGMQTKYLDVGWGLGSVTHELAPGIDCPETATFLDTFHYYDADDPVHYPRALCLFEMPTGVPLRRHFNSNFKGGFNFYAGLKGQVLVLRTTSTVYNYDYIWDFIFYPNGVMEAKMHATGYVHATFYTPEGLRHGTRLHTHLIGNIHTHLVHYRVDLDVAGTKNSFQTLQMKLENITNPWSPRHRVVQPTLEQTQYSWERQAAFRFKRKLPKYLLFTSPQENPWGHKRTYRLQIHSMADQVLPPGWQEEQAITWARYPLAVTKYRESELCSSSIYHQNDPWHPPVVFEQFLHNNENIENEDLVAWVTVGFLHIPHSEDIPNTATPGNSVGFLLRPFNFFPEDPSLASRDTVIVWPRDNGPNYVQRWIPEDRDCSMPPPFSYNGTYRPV
Outline: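 Inhibition of recombinant human DAO (diamine oxidase, R&D systems) was assessed with the Amplex Red Hydrogen Peroxide Assay Kit. Hydrogen peroxide produced from 1 mM putrescine was detected through an HRP-coupled reaction that converts Amplex Red into fluorescent resorufin, read at 544 nm excitation and 590 nm emission. IC50 values came from four-parameter logistic fits in GraphPad Prism.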

[2] = biological target: T3, recombinant human MAO-B (monoamine oxidase-B) (Homo sapiens, UniProt P27338); experiment: Activity on recombinant human MAO-B, Amplex Red method, 1 mM benzylamine substrate; conditions: read-out: Inhibitory Activity (IC50, nM) MAO-B
T3 construct: purchased Sigma-Aldrich
T3 sequence (P27338 1-520): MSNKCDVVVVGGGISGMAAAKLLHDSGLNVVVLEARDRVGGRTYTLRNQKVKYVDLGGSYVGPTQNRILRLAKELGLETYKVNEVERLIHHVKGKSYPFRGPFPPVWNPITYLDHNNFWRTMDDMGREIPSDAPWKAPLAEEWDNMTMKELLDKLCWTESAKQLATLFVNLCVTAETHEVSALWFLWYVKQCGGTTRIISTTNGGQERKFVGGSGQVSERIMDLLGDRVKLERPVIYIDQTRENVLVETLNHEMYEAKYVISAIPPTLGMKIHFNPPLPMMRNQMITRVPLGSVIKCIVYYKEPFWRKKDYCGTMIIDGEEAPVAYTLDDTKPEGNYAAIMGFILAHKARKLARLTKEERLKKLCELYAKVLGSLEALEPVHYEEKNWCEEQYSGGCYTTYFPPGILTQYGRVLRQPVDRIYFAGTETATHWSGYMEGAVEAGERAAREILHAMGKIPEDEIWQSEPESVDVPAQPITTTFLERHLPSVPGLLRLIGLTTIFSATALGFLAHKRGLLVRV
Outline: (§1)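 Fluorescence (544/590 nm) of resorufin formed from Amplex Red by HRP and enzyme-generated H2O2 was followed over 1-2 h. Substrates were 0.5 mM tyramine for MAO-A and 1 mM benzylamine for MAO-B; compounds were preincubated with enzyme for 30 min at 37° C. IC50 came from four-parameter logistic fitting of signal-rate inhibition.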

[3] = biological target: T4, recombinant human MAO-A (monoamine oxidase-A) (Homo sapiens, UniProt P21397); experiment: Activity on recombinant human MAO-A, Amplex Red method, 0.5 mM tyramine substrate; conditions: read-out: Inhibitory Activity (IC50, nM) MAO-A
T4 construct: purchased Sigma-Aldrich
T4 sequence (P21397 1-527): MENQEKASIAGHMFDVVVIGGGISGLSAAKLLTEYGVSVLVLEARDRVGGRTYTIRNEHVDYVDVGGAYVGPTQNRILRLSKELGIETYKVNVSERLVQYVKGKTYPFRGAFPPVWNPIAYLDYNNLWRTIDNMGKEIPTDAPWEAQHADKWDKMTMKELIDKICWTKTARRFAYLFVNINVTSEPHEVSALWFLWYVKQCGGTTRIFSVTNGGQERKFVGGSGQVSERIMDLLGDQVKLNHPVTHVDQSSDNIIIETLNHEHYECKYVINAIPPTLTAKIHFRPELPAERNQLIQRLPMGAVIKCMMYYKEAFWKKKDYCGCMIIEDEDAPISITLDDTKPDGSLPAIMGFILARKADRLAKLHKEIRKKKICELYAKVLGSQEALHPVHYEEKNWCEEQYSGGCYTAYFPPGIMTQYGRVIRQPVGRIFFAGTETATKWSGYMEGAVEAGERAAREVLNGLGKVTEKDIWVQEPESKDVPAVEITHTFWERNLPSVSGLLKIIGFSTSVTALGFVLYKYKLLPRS
Outline: as §1

[4] = 1 mM putrescine, * = between 10 and 100 nM, ** = between 300 and 1000 nM

| IC50 (recombinant human VAP-1) [nM] | IC50 ([1]; 1 mM putrescine substrate, bound qualified by footnote * / **) [nM] | IC50 ([2]; 1 mM benzylamine substrate) [nM] | IC50 ([3]; 0.5 mM tyramine substrate) [nM] | IC50 (recombinant human VAP-1; 30 min preincubation at 37° C.) [nM] | IC50 [1, 4] [nM] | IC50 ([2]; 1 mM benzylamine) [nM] | IC50 ([3]; 0.5 mM tyramine) [nM] | Inhibitory Activity (IC50, nM) DAO [1, 4] | IC50 ([1]; 1 mM putrescine substrate) [nM] | Structure (SMILES) |
| --- | --- | --- | --- | --- | --- | --- | --- | --- | --- | --- |
| 4.6 | < 100 | 1900 | > 100000 |  |  |  |  |  |  | NC/C(=C\F)Cn1ncn(-c2cccc(-c3ccc4c(c3)NC(=O)CO4)n2)c1=O [Example 199, hydrochloride] |
|  |  |  |  | 0.5 | 490 | > 10000 | > 100000 |  |  | Cc1cc(-c2ccc(N3CCOCC3)nc2)cnc1-n1cnn(C/C(=C/F)CN)c1=O [Example 149, 2-[(2E)-2-(aminomethyl)-3-fluoroprop-2-en-1-yl]-4-[5-methyl-6′-(morpholin-4-yl)-3,3′-bipyridin-6-yl]-2,4-dihydro-3H-1,2,4-triazol-3-one hydrochloride] |
|  |  |  |  | 2.8 |  | > 10000 | > 100000 | no inhibitory |  | CC(=O)Nc1ccc(-c2cccc(-n3cnn(C/C(=C/F)CN)c3=O)c2C)cc1 [Example 107, N-(3′-{1-[(2E)-2-(aminomethyl)-3-fluoroprop-2-en-1-yl]-5-oxo-1,5-dihydro-4H-1,2,4-triazol-4-yl}-2′-methylbiphenyl-4-yl)acetamide] |
|  |  |  |  | 0.47 | 2.2 | 7900 | > 100000 |  |  | COc1cc(-c2cccc(-n3cnn(C/C(=C/F)CN)c3=O)c2)ccn1 [Example 79, 2-[(2E)-2-(aminomethyl)-3-fluoroprop-2-en-1-yl]-4-[3-(2-methoxypyridin-4-yl)phenyl]-2,4-dihydro-3H-1,2,4-triazol-3-one hydrochloride] |
| 0.98 |  | 10.1 | < 100 |  |  |  |  |  | < 100 | NC/C(=C/F)Cn1ncn(-c2ncc(-c3ccc4nonc4c3)s2)c1=O [Example 234, 2-[(2Z)-2-(aminomethyl)-3-fluoroprop-2-en-1-yl]-4-[5-(2,1,3-benzooxadiazol-5-yl)-1,3-thiazol-2-yl]-2,4-dihydro-3H-1,2,4-triazol-3-one hydrochloride] |
|  |  |  |  | 1.1 | 12 | > 10000 | > 100000 |  |  | CC(=O)Nc1cc(-c2cccc(-n3cnn(C/C(=C\F)CN)c3=O)c2)ccn1 [Example 80, N-[4-(3-{1-[(2Z)-2-(aminomethyl)-3-fluoroprop-2-en-1-yl]-5-oxo-1,5-dihydro-4H-1,2,4-triazol-4-yl}phenyl)pyridin-2-yl]acetamide hydrochloride] |
|  |  |  |  | 0.48 | < 100 | 221 | > 10000 |  |  | NC/C(=C\F)Cn1ncn(-c2cccc(-c3ccc4c(c3)OCO4)c2)c1=O [Example 93, 2-[(2E)-2-(aminomethyl)-3-fluoroprop-2-en-1-yl]-4-[3-(1,3-benzodioxol-5-yl)phenyl]-2,4-dihydro-3H-1,2,4-triazol-3-one hydrochloride] |
|  |  |  |  | 0.35 | 480 | 170 | 4800 |  |  | Cc1cc(-c2ccc3c(c2)OCO3)cnc1-n1cnn(C/C(=C/F)CN)c1=O [Example 150, 2-[(2E)-2-(aminomethyl)-3-fluoroprop-2-en-1-yl]-4-[5-(2H-1,3-benzodioxol-5-yl)-3-methylpyridin-2-yl]-2,4-dihydro-3H-1,2,4-triazol-3-one hydrochloride] |
|  |  |  |  | 0.6 | 2.5 | 1200 | 26500 |  |  | NC/C(=C\F)Cn1ncn(-c2cccc(-c3ccc4c(c3)NC(=O)CO4)c2)c1=O [Example 103, 6-(3-{1-[(2E)-2-(aminomethyl)-3-fluoroprop-2-en-1-yl]-5-oxo-1,5-dihydro-4H-1,2,4-triazol-4-yl}phenyl)-2H-1,4-benzoxazin-3(4H)-one hydrochloride] |
| 2.8 |  | 180 | 120000 |  |  |  |  |  | 1.4 | CC(C)c1nc(-c2ccc(-c3cccc(-n4cnn(C/C(=C/F)CN)c4=O)n3)cc2)no1 [Example 180, 2-[(2E)-2-(aminomethyl)-3-fluoroprop-2-en-1-yl]-4-(6-{4-[5-(propan-2-yl)-1,2,4-oxadiazol-3-yl]phenyl}pyridin-2-yl)-2,4-dihydro-3H-1,2,4-triazol-3-one] |
|  |  |  |  | 2.2 | 32 | 142 | 5200 |  |  | NC/C(=C\F)Cn1ncn(-c2cc(F)c(Br)cc2F)c1=O [Example 23, 2-[(2E)-2-(aminomethyl)-3-fluoroprop-2-en-1-yl]-4-(4-bromo-2,5-difluorophenyl)-2,4-dihydro-3H-1,2,4-triazol-3-one hydrochloride] |
